Where “and” joins values, the source holds several entries; their conditions need not be identical. Identical values can stand only once.
Biological target: T1, NS3 protease (dengue virus type 4, UniProt A0A0K0TQ36)
T1 sequence (A0A0K0TQ36 whole entry): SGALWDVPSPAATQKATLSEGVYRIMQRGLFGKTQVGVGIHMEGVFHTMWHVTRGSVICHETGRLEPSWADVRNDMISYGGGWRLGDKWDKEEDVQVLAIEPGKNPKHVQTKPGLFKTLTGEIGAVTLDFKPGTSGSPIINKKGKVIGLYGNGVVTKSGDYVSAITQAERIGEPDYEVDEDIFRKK
Assay: Functional biochemical assay to identify treatments for viral infectious disease that targets Dengue virus type 4 NS2B-NS3 protease. Utilizing a direct enzyme activity measurement method, reading the fluorescence intensity is used to characterize the relative potency of inhibitors as IC50.
Design: species or system Philippines/H241/1956

N=C(N)NCCC[C@H](NC(=O)c1nccs1)C(=O)N[C@@H](CCCCN)C(=O)N[C@@H](C(N)=O)c1ccc(OCc2ccc(C(F)(F)F)cc2)cc1
IC50: 2.58 µM and 1.74 µM and 2.67 µM and 1.47 µM and 1.14 µM and 1.86 µM and 1.06 µM

N=C(N)NCCC[C@H](NC(=O)[C@H](Cc1ccc(CN)cc1)NC(=O)c1ccccc1)B(O)O
IC50: 0.793 µM and 0.503 µM

COCCNC(=O)[C@H](Nc1ccc2c(c1)CNC2)c1cc(Cl)cc(C2CC2)c1
IC50: > 99.5 µM

O=C(NCC(F)F)[C@H](Nc1ccc2c(c1)CNC2)c1cc(Cl)cc(C2CC2)c1
IC50: > 99.5 µM

O=C(Nc1ccc2c(c1)CNCC2)c1cc(Cl)cc2[nH]ncc12
IC50: > 99.5 µM

CC(C)(C)c1cc(Br)cc(C(=O)Nc2ccc3c(c2)CNC3)c1
IC50: > 99.5 µM

Clc1ccc2[nH]cc(Cc3ccc(-c4nn[nH]n4)cc3)c2c1
IC50: 99.1 µM

CN1Cc2ccc(NC(=O)c3cc(Cl)cc4[nH]ncc34)cc2C1
IC50: > 99.5 µM

O=C(Nc1ccc2c(c1)CNC2)c1cccc(-c2cnco2)c1
IC50: 23.3 µM

CC(C)NC(=O)[C@H](Nc1ccc2c(c1)CNC2)c1cc(Cl)cc2[nH]ncc12
IC50: 49.8 µM

Cn1cc2cc(Cl)cc(C(=O)Nc3ccc4c(c3)CNC4)c2n1
IC50: > 99.5 µM

O=C(Nc1ccc2c(c1)CNC2)c1cc(Br)cc2ccccc12
IC50: > 99.5 µM

O=C(Nc1ccc2c(c1)CNC2)c1cc(Cl)cc2c1CCC2
IC50: > 99.5 µM

CNC(=O)[C@H](Nc1ccc2c(c1)CNC2)c1cc(Cl)cc(C2CC2)c1
IC50: > 99.5 µM

O=C1Cc2c(cccc2C(=O)Nc2ccc3c(c2)CNC3)N1
IC50: 15.1 µM

O=C(Nc1ccc2c(c1)CNC2)c1cc(Br)cc2[nH]c(-c3ccccc3)nc12
IC50: 2.96 µM

N#C[C@H](Nc1ccc2c(c1)CNC2)c1cc(Cl)cc(C2CC2)c1
IC50: > 99.5 µM

O=C(Nc1cc(Cl)cc([C@H]2CN(Cc3ccccc3)C[C@@H]2c2cccc(-c3nn[nH]n3)c2)c1)OCc1ccccc1
IC50: 6.83 µM

Clc1cc(CNc2ccc3c(c2)CNC3)c2cn[nH]c2c1
IC50: 38.8 µM

CC(C)c1cc(Br)cc(C(=O)Nc2ccc3c(c2)CNC3)c1
IC50: > 99.5 µM

O=C(NC1CCOCC1)[C@H](Nc1ccc2c(c1)CNC2)c1cc(Cl)cc(C2CC2)c1
IC50: > 99.5 µM

Cn1cc(CNC(=O)[C@H](Nc2ccc3c(c2)CNC3)c2cc(Cl)cc(C3CC3)c2)cn1
IC50: > 99.5 µM

O=C(Nc1cc(Cl)cc(C(=O)Nc2ccc3c(c2)CNC3)c1)OCc1ccccc1
IC50: 91.3 µM

Cn1cc(CCc2nc3c(C(=O)Nc4ccc5c(c4)CNC5)cc(Cl)cc3[nH]2)cn1
IC50: 26.4 µM

O=C(Nc1ccc2c(c1)CNC2)c1cc(F)cc2[nH]ncc12
IC50: > 99.5 µM

Cc1c(C(=O)Nc2cc([C@H]3CCOC3)ccn2)cc(C2CC2)n1C
IC50: > 99.5 µM

O=C(Nc1ccc2c(c1)CNC2)c1cc(Cl)cc2ccncc12
IC50: > 99.5 µM

O=C1Cc2c(cc(Br)cc2C(=O)Nc2ccc3c(c2)CNC3)N1
IC50: 87.9 µM

CC(C)NC(=O)[C@H](Nc1ccc2c(c1)CNC2)c1cc(Cl)cc2[nH]c(-c3ccccc3)nc12
IC50: 14.6 µM and 4.38 µM

O=C(Nc1cc(Cl)cc([C@H](C#CCO)Nc2cccc(-c3nn[nH]n3)c2)c1)OCc1ccccc1
IC50: 15.9 µM

NCCc1csc2cc(C(=O)Nc3cc([C@H]4CCOC4)ccn3)ccc12
IC50: > 99.5 µM

O=C(Nc1ccc2c(c1)CNC2)c1cccc2[nH]c(C(F)(F)F)cc12
IC50: > 99.5 µM

O=C(Nc1ccc2c(c1)CNC2)c1cc(Cl)cc2cn[nH]c12
IC50: > 99.5 µM

N#Cc1cccc(-c2nc3c(C(=O)Nc4ccc5c(c4)CNC5)cc(F)cc3[nH]2)c1
IC50: 2.86 µM

NCc1cccc([C@H]2C[C@@H]2c2cc(Cl)cc(NC(=O)OCc3ccccc3)c2)c1
IC50: 7.94 µM

C=CC[C@H]1NCc2cc(NC(=O)c3cccc4c3CC(=O)N4)ccc21
IC50: > 99.5 µM

N#C[C@H](Nc1cccc(-c2nn[nH]n2)c1)c1cc(Cl)cc(NC(=O)OCc2ccccc2)c1
IC50: 12.4 µM

O=C(Nc1ccc2c(c1)CNC2)c1cc(Cl)cc2[nH]ncc12
IC50: > 99.5 µM

O=C(Nc1ccc2c(c1)CNC2)c1ccc2[nH]cc(C3CCNCC3)c2c1
IC50: 36.7 µM

O=C(Nc1ccc2c(c1)CNC2)c1cc(Br)cc2[nH]c(=O)[nH]c12
IC50: 38.7 µM

N#C[C@H](Nc1ccc2c(c1)CNC2)c1cc(Cl)cc2[nH]ncc12
IC50: > 99.5 µM

O=C(Nc1cc(Cl)cc(C(=O)Nc2cccc([C@H]3C[C@H]3C(=O)O)c2)c1)OCc1ccccc1
IC50: 32.8 µM

Clc1cc([C@@H]2C[C@H]2c2cccc(C3CCNCC3)c2)c2cn[nH]c2c1
IC50: 5.84 µM

Cc1c(C(=O)Nc2cc(-c3cccnc3)ccn2)cc(C2CC2)n1C
IC50: 6.83 µM

O=C(NCC(F)F)[C@H](Nc1ccc2c(c1)CNC2)c1cc(F)cc2[nH]ccc12
IC50: > 99.5 µM

CC(C)c1nnc(-c2nc3c(C(=O)Nc4ccc5c(c4)CNC5)cc(F)cc3[nH]2)s1
IC50: 9.86 µM

C=CC[C@H]1NCc2cc(NC(=O)c3cc(Cl)cc4[nH]ncc34)ccc21
IC50: > 99.5 µM

Cc1nc2c(C(=O)Nc3ccc4c(c3)CNC4)cc(Cl)cc2[nH]1
IC50: 26.7 µM

O=C(Nc1cc(Cl)cc(-c2ccc3[nH]c(C(=O)O)cc3c2)c1)OCc1ccccc1
IC50: 6.92 µM

O=C(NCCC1CC1)[C@H](Nc1ccc2c(c1)CNC2)c1cc(Cl)cc(C2CC2)c1
IC50: > 99.5 µM

NCc1cccc(-c2csc3cc(C(=O)Nc4ccc5c(c4)CNC5)ccc23)c1
IC50: 43.7 µM

N#Cc1cc2c(cc1NC(=O)c1cc(F)cc3[nH]ncc13)CNC2
IC50: 36.9 µM

O=C(Nc1ccc2c(c1)CNC2)c1cc(Cl)cc2cc[nH]c12
IC50: > 99.5 µM

C=CC[C@H]1NCc2cc(NC(=O)c3cc(F)cc4[nH]ncc34)ccc21
IC50: > 99.5 µM

O=C(Nc1cc(Br)c2c(c1)CNC2)c1cc(F)cc2[nH]ncc12
IC50: > 99.5 µM

C=CC[C@H](Nc1cc(Cl)cc(NC(=O)OCc2ccccc2)c1)c1cccc(-c2nn[nH]n2)c1
IC50: 7.78 µM

CNC(=O)[C@H](Nc1cc(CN)cc(C(=O)O)c1)c1cc(Cl)cc(C2CC2)c1
IC50: > 99.5 µM

O=C(NCC(F)F)[C@H](Nc1ccc2c(c1)CNC2)c1cc(F)cc2[nH]ncc12
IC50: > 99.5 µM

O=C1Cc2c(cc(F)cc2C(=O)Nc2ccc3c(c2)CNC3)N1
IC50: 53.7 µM

O=C(Nc1cc(Cl)cc([C@H]2C[C@@H]2c2cccc(C3CCNCC3)c2)c1)OCc1ccccc1
IC50: 5.51 µM

O=C(Nc1ccc2c(c1)CNC2)c1ccc2c(C3=CCNCC3)csc2c1
IC50: 70 µM

CC(C)CNC(=O)c1cc(Cl)ccc1NS(=O)(=O)c1ccc(Oc2ccccc2Cl)cc1
IC50: 15 µM

C=CC[C@H]1NCc2cc(N[C@H](C(=O)NC(C)C)c3cc(Cl)cc4[nH]ncc34)ccc21
IC50: > 99.5 µM

O=C(Nc1ccc2c(c1)CNC2)c1cc(F)cc2[nH]c(-c3ccccc3F)nc12
IC50: 5.23 µM

O=C(NC1CCOCC1)[C@H](Nc1ccc2c(c1)CNC2)c1cc(Cl)cc2[nH]ncc12
IC50: 43.9 µM

CNC(=O)[C@H](Nc1cc(Cl)cc(NC(=O)OCc2ccccc2)c1)c1cccc(-c2nn[nH]n2)c1
IC50: 61.6 µM

O=C(Nc1ccc2c(c1)CNC2)c1cc(F)c2[nH]ccc2c1
IC50: > 99.5 µM

N[C@H]1CC[C@H](c2ccc(NC(=O)c3cc(Cl)cc(NC(=O)OCc4ccccc4)c3)cc2)C1
IC50: 7.64 µM

Cn1c(=O)[nH]c2c(C(=O)Nc3ccc4c(c3)CNC4)cc(Br)cc21
IC50: > 99.5 µM

OCC#C[C@H](Nc1ccc2c(c1)CNC2)c1cc(Cl)cc2[nH]ncc12
IC50: 22.3 µM

O=C(Nc1ccc2c(c1)CNC2)c1cc(F)cc2c1CCC2
IC50: > 99.5 µM

NCc1cccc(NC(=O)c2cc(Cl)cc(NC(=O)OCc3ccccc3)c2)c1
IC50: 34.6 µM

c1cc(C2CCN(Cc3c[nH]c4ccccc34)CC2)c2ccncc2c1
IC50: > 99.5 µM

Cc1cccc(-c2nc3c(C(=O)Nc4ccc5c(c4)CNC5)cc(Cl)cc3[nH]2)c1O
IC50: 3.54 µM

CNC(=O)[C@H](Nc1cccc(CN)c1)c1cc(Cl)cc(NC(=O)OCc2ccccc2)c1
IC50: > 99.5 µM

O=C(Nc1ccc2c(c1)CNC2)c1cccc2[nH]c(=O)[nH]c12
IC50: 74.5 µM

O=C(Nc1ccc2c(c1)CNC2)c1cc(Cl)cc(C(F)(F)F)n1
IC50: 23 µM

O=C(Nc1ccc2c(c1)CNC2)c1cc(F)cc2[nH]c(-c3ccc(F)cc3)nc12
IC50: 3.65 µM

CCc1cc(C(=O)Nc2cccc(-n3nn[nH]c3=O)c2)sc1-c1ccc(Cl)cc1
IC50: 13.1 µM

Cc1c(C(=O)Nc2cc(CCCN)ccn2)cc(C2CC2)n1C
IC50: 39.2 µM

O=C(Nc1ccc2c(c1)CNC2)c1cccc2nc(O)ccc12
IC50: > 99.5 µM

NCc1ccc([C@H]2C[C@@H]2c2cc(Cl)cc(NC(=O)OCc3ccccc3)c2)cc1
IC50: 6.87 µM

COc1cc(-c2cc(NC(=O)c3cc(F)cc4[nH]ncc34)cc3c2CNC3)ccn1
IC50: 42.5 µM

CCOCCNC(=O)[C@H](Nc1ccc2c(c1)CNC2)c1cc(Cl)cc2[nH]ncc12
IC50: > 99.5 µM

O=C(Nc1cc(Cl)cc(C(=O)Nc2ccc3c(c2)CCNC3)c1)OCc1ccccc1
IC50: 32.1 µM

CC(C)(c1nc2c(C(=O)Nc3ccc4c(c3)CNC4)cc(F)cc2[nH]1)S(C)(=O)=O
IC50: 18 µM

O=C1Cc2cc(C(=O)Nc3ccc4c(c3)CNC4)ccc2N1
IC50: 14 µM and 8.21 µM

NCCc1csc2cc(C(=O)Nc3ccc4c(c3)CNC4)ccc12
IC50: > 99.5 µM

Cc1ccc(NC(=O)c2cc(Cl)cc(NC(=O)OCc3ccccc3)c2)cc1CN
IC50: 70.7 µM

O=C(Nc1ccc2c(c1)CNC2)c1cc(F)cc2[nH]c(-c3ccccc3)nc12
IC50: 5.41 µM

O=C(Nc1ccc2c(c1)CNC2)c1cc(Cl)cc2nn(-c3ccccc3)nc12
IC50: 5.25 µM

Cc1[nH]c2ccccc2c1CN1CCC(c2c[nH]c3ncccc23)CC1
IC50: > 99.5 µM

O=C(Nc1ccc2c(c1)CNC2)c1cccc2cn[nH]c12
IC50: 45 µM

O=C(Nc1cc2c(cc1Br)CNC2)c1cc(F)cc2[nH]ncc12
IC50: > 99.5 µM

O=C(Nc1ccc2c(c1)CNC2)c1ccc2[nH]ccc2c1
IC50: > 99.5 µM

O=C(Nc1cc2c(c(C3=CCS(=O)(=O)CC3)c1)CNC2)c1cc(F)cc2[nH]ncc12
IC50: 50 µM

CNC(=O)[C@H](Nc1cc(CN)cc(-c2nn[nH]n2)c1)c1cc(Cl)cc(C2CC2)c1
IC50: > 99.5 µM

O=C(Nc1cc2c(c(C3=CCOCC3)c1)CNC2)c1cc(F)cc2[nH]ncc12
IC50: 29.9 µM

O=C(Nc1cc(Cl)cc(C(=O)Nc2cccc(-n3nn[nH]c3=O)c2)c1)OCc1ccccc1
IC50: 13.9 µM

Source: ChEMBL document CHEMBL5604066, “ASAP - DENV-4 NS2B-NS3 protease fluorescence dose response” (2024)
